Experimental data published in patent US7351855B2, “Chemically defined non-polymeric valency platform molecules and conjugates thereof” (La Jolla Pharmaceutical Company, priority 1993, dated 2008).
No end group written: not given here.

Key:
[1] = test system: cultured T cell from melittin-immunized mice; experiment: Murine lymph node proliferation assay ([3H]thymidine uptake); type: cell-based, Balb/c mice; settings: T cells from mice primed with melittin; 10, 1.0 or 0.1 μg/mL; FIG. 8
Description: Femal Balb/c mic (6-8 weeks old; Jackson Laboratory, Bar Harbor, Me.) were obtained and housed at the La Jolla Pharmaceutical animal facility according to National Institutes of Health guidelines. Food and water was provided ad libitum. Balb/c mice were immunized in each hind footpad with 50 μg of melittin molecule in Complete Freund's Adjuvant (CFA) (Sigma Chemical Co., St. Louis, Mo.). Popliteal lymph nodes were harvested aseptically seven days later. Lymph nodes were gently dissociated by teasing the cells through a 50 mesh sieve screen. The single cell suspension was washed in RPMI-1640 (Irvine Scientific, Irvine Calif.) containing glutamine, penicillin and streptomycin. 5×10^5 cells in RPMI medium supplemented with 10% fetal bovine serum (FCS) in quadruplicate wells of round bottom 96-well Corning microtitration plates were-cultured with melittin or a melittin peptide at 10, 1.0 or 0.1 μg/mL. Cells in the positive control wells were cultured with murine interleukin 2 (IL-2) at 100 or 50 U/mL, PHA (phytohemagglutinin) at 1 μg/mL. The negative control wells contained lymph node cells in RPM-1640 and 10% FCS. The cells were cultured for 4 days in a 37° C. incubator with 5% CO2. Each well was pulsed with 1 μCi of [^3H]thymidine (ICN Biochemicals, Costa Mesa, Calif.) for an additional 18 hours. Cells were harvested onto a glass fiber filter mat using a semiautomatic cell harvester (Scatron, Sterling, Va.). Incorporation of [^3H]thymidine was determined by liquid scintillation. The results were expressed as average counts per minute.

peptide-specific pfc = experiment: pfc assay: melittin peptide-specific IgG pfc in spleens of mice primed and boosted with melittin; type: in vivo, C57BL/6 mice; settings: Table 7
Description: Female C57BL/6 mice, ages 5 to 8 weeks were purchased from The Jackson Laboratory, Bar Harbor, Me. Animals were maintained and treated accordingly to National Institutes of Health guidelines.
Mice were primed by an i.p. injection containing 5 μg of melittin precipitated on alum and 2×10^9 B. pertussis (Michigan Department of Public Health, Lansing, Mich.) as an adjuvant. The mice were boosted with 5 μg of melittin, i.p., in PBS.
Sheep Red Blood Cells (SRBC) (Colorado Serum Co., Denver, Colo.) were conjugated with melittin-peptide […] using carbodiimide. Fresh SRBC (less than 2 weeks old) were washed four times with cold saline and one time with mannitol (0.35 M mannitol, 0.01 M NaCl). The SRBC were suspended in mannitol to a concentration of 10% (v/v). 100 μL of mannitol containing 30 μg of melittin peptide #3 were added to 1 mL aliquots of 10% SRBC which were then incubated on ice for 10 minutes. 100 μL of a 100 mg/mL solution of 1-ethyl-3 (3-dimethylaminopropyl)-carbodiimide HCl (EDCI) was then added and incubated on ice for 30 minutes. The SRBC were washed twice with Balanced Salt Solution (BSS) (Irvine Scientific Co, Irvine, Calif.) and resuspended to 10% (v/v). Lyophilized guinea pig complement (GIBCO, New York, N.Y.) was reconstituted with BSS and then diluted 1:3 with BSS. One mL of the diluted guinea pig complement was added to 3 mL of conjugated SRBC. Rabbit anti-mouse IgG was added to give a final dilution of 1:100 of the rabbit antiserum. This concentration was predetermined to inhibit all IgM pfc while enhancing the maximum number of IgG pfc. An equal volume of this complement/anti-mouse IgG/SRBC suspension was mixed with a cell suspension of mouse spleen cells taken from a single mouse. 50 μL of each mixture was transferred to the chambers of a Cunningham slide (three chambers per slide). The edges were then sealed with paraffin and incubated at 37° C. for one hour. The number of plaques per chamber was counted with the aid of a dissecting microscope. Each spleen suspension was also assayed using non-conjugated SRBC as a control. The number of viable cells, in each spleen cell suspension, was determined. The number of pfc per 10^6 spleen cells was determined for each chamber and the mean of the triplicates calculated. The number of pfc for non-conjugated SRBC was subtracted from the number of pfc for conjugated SRBC to determine the number of peptide-specific pfc.
Two different tolerogens were constructed to determine if the orientation of the peptide on the PEG conjugate affects its ability to induce tolerance. The peptide was covalently bound to valency platform molecule 3 through its C-terminal end to make melittin conjugate 3. Groups (3/group) of mice primed with melittin were treated, i.p., with conjugates or with saline. Five days later all of the mice, including the non-treated control group, were boosted with […] of melittin. Six days later the mice were sacrificed, their spleens were harvested and the number of peptide specific pfc determined. As-illustrated in Table 8, both orientations were effective in reducing the number of peptide-specific pfc/10^6 spleen cells in mice primed and boosted with the parent protein Melittin.
Three different conjugates, each with a different number of peptides per PEG conjugate, were constructed to determine if the ratio of peptides to PEG molecule was important. Conjugate 1 had only two peptides per PEG conjugate. Another had four peptides per PEG conjugate (Conjugate 2). The third had eight peptides per PEG conjugate (Conjugate 5). Groups (3/group) of mice primed with melittin were treated, i.p., with the different conjugates or with saline. Five days later all of the nice, including the non-treated control group, were boosted with 5 μg of melittin. Six days later, the mice were sacrificed, their spleens were harvested and the number of peptide-specific pfc determined.

Molecule | T cell proliferation (in words) [1] | other results
CC[C@H](C)[C@H](NC(=O)CN)C(=O)NCC(=O)N[C@@H](C)C(=O)N[C@H](C(=O)N[C@@H](CC(C)C)C(=O)N[C@@H](CCCCN)C(=O)N[C@H](C(=O)N[C@@H](CC(C)C)C(=O)N[C@H](C(=O)N[C@H](C(=O)NCC(=O)N[C@@H](CC(C)C)C(=O)N1CCC[C@H]1C(=O)N[C@@H](C)C(=O)N[C@@H](CC(C)C)C(=O)N[C@H](C(=O)N[C@@H](CO)C(=O)N[C@@H](Cc1c[nH]c2ccccc12)C(=O)N[C@H](C(=O)N[C@@H](CCCCN)C(=O)N[C@@H](CCCNC(=N)N)C(=O)N[C@@H](CCCCN)C(=O)N[C@@H](CCCNC(=N)N)C(=O)N[C@@H](CCC(N)=O)C(=O)N[C@@H](CCC(N)=O)C(N)=O)[C@@H](C)CC)[C@@H](C)CC)[C@@H](C)O)[C@@H](C)O)C(C)C)C(C)C [Melittin, reference compound] | showed T cell proliferation | 
Cys-Ile-Ser-Trp-Ile-Lys-Arg-Lys-Arg-Gln-Gln-Gly (CISWIKRKRQQG; printed: Cys-Ile-Ser-Trp-Ile-Lys-Arg-Lys-Arg-Gln-Gln-Gly) [Melittin Peptide #5] | showed T cell proliferation | 
IKRKRQQG [Melittin Peptide #1] | no significant T cell proliferation | 
Ile-Ser-Trp-Ile-Lys-Arg-Lys-Arg-Gln-Gln-Gly (ISWIKRKRQQG; printed: Ile-Ser-Trp-Ile-Lys-Arg-Lys-Arg-Gln-Gln-Gly) [Melittin Peptide #4] | showed T cell proliferation | 
N,N′-Bis-(3,5-bis-(iodoacetamido)benzoyl) derivative of α,ω-bis-(N-2-aminoethylcarbamoyl)polyethyleneglycol [Compound 3] |  | % Reduction (peptide-specific pfc; 250 μg/mouse i.p.): 67.3%; Peptide specific pfc per 10^6 spleen cells (Mean and S.D.) (peptide-specific pfc; 250 μg/mouse i.p.): 957 (298) pfc per 10^6 spleen cells; % Reduction (peptide-specific pfc; 500 μg/mouse i.p.): 83.3%; Peptide specific pfc per 10^6 spleen cells (Mean and S.D.) (peptide-specific pfc; 500 μg/mouse i.p.): 489 (one mouse) pfc per 10^6 spleen cells; % Reduction (peptide-specific pfc; 1000 μg/mouse i.p.): 86.8%; Peptide specific pfc per 10^6 spleen cells (Mean and S.D.) (peptide-specific pfc; 1000 μg/mouse i.p., boost 5 days later, spleens 6 days after boost): 386 (85) pfc per 10^6 spleen cells
SWIKRKRQQG [Melittin Peptide #3] | showed T cell proliferation | 
WIKRKRQQG [Melittin Peptide #2] | no significant T cell proliferation | 
